Test results from patent US7943628B2, “Pyrimidine derivatives” (Pfizer Limited, priority 2005, dated 2011).

Molecular target: T1, histamine H4 receptor (Homo sapiens, UniProt Q9H3N8)
T1 construct: expressed in transfected cells; host or cells: CHO cells
Test: H4 binding, method 1 ([3H]-histamine filtration binding on CHO cell membranes)
Conditions: for Ki: H4 binding, method 1, Ki calculated from IC50 (Cheng-Prussoff); for Method 1, activity at top dose (10 μM): top dose 10 μM
Method: Cell pellets from CHO cells expressing the histamine H4 receptor were homogenised in ice-cold 50 mM Tris-HCl/0.5 mM CaCl2 buffer containing a protease inhibitor cocktail (Roche®, United Kingdom) using a ground glass homogeniser. Homogenates were centrifuged at 48000 g for 30 min at 4° C. The membrane pellet was resuspended in fresh buffer and the centrifugation step was repeated as described above. The membrane pellet was resuspended in 50 mM Tris-HCl in the same volume as the original cell pellet. Aliquots of membrane preparations were stored at −80° C. and were used for [^3H]-Histamine binding experiments.
Cell membranes (20-35 μg/well) were incubated for 90 minutes shaking at room temperature with 3 nM [2,5-^3H]Histamine dihydrochloride (30-60 Ci/mmol) in 50 mM Tris-HCl (pH 7.4), with or without competing H4 ligands. The reaction was terminated by rapid filtration through 0.5% polyethylenimine-soaked Unifilter GF/B plates (Packard) followed by three washes with 1 ml ice-cold 50 mM Tris-HCl. Filters were dried for 45 min at 45° C. and bound radiolabel was determined using scintillation counting techniques. Non-specific binding was defined with 10 μM JNJ7777120.

SMILES	Ki [nM]	other results
CC(C)(C)CCNc1cc(N[C@H]2CCN(Cc3ccc(CO)o3)C2)ncn1 [Example 274, (5-{[(3S)-3-({6-[(3,3-Dimethylbutyl)amino]pyrimidin-4yl}amino)pyrrolidin--1-yl]methyl}-2-furyl)methanol]	1070	
CNc1cc(N2CC[C@@H](NC)C2)ncn1 [Example 262, N-Methyl-6-[(3R)-3-(methylamino)pyrrolidin-1-yl]pyrimidin-4-amine]	623	
CC(C)CCNc1cc(N[C@H]2CCNC2)ncn1 [Example 107]	271	
CNC1CCCN(c2cc(NCC(C)(C)C)nc(N)n2)C1 (stereo not shown) [Example 250, N^4-(2,2-Dimethylpropyl)-6-[3-(methylamino)piperidin-1-yl]pyrimidine-2,4-diamine]	353	
CC(C)CNc1cc(N2CCN(C)CC2)ncn1 [Example 105, N-Isobutyl-6-(4-methylpiperazin-1-yl)pyrimidin-4-amine]	68.8	
CC(C)(C)CCNc1cc(N[C@H]2CCNC2)nc(N)n1 [Example 101, N^4-(3,3-Dimethylbutyl)-N^6-[(3S)-pyrrolidin-3-yl]pyrimidine-2,4,6-triamine]	463	
CN[C@H]1[C@@H]2CN(c3cc(NCCC(C)(C)C)nc(N)n3)C[C@@H]21 [Example 309, N^4-(3,3-Dimethylbutyl)-6-[(1R,5S,6s)-6-(methylamino)-3-azabicyclo[3.1.0]hex-3-yl]pyrimidine-2,4-diamine]		Method 1, % at 10 μM (at 10 μM): 26% at 10 μM
CC(C)(C)CCNc1cc(N2CCC(N3CCCC3)CC2)ncn1 [Example 301, N-(3,3-Dimethylbutyl)-6-(4-pyrrolidin-1-ylpiperidin-1-yl)pyrimidin-4-amine]		Method 1, activity at top dose (10 μM): No activity at top
CN[C@@H]1CCN(c2ncnc(NCC3CC3)c2C)C1 [Example 291, N-(Cyclopropylmethyl)-5-methyl-6-[(3R)-3-(methylamino)pyrrolidin-1-yl]pyrimidin-4-amine]		Method 1, activity at top dose (6.3 μM) (top dose 6.3 μM): No activity at top
C[C@@H]1CN(c2cc(NCc3ccccc3F)nc(N)n2)CCN1 [Example 237, N^4-(2-Fluorobenzyl)-6-[(3R)-3-methylpiperazin-1-yl]pyrimidine-2,4-diamine]	211	
CN[C@@H]1CCN(c2cc(N3CC(F)(F)C3)nc(N)n2)C1 [Example 275, 4-(3,3-Difluoroazetidin-1-yl)-6-[(3R)-3-(methylamino)pyrrolidin-1-yl]pyrimidin-2-amine]	1160	
c1nc(NCC2CC2)cc(N2CCNCC2)n1 [Example 285, N-(Cyclopropylmethyl)-6-piperazin-1-ylpyrimidin-4-amine]	1800	
CC(C)(C)CNc1cc(N2CC(N3CCOCC3)C2)nc(N)n1 [Example 287, N^4-(2,2-Dimethylpropyl)-6-(3-morpholin-4-ylazetidin-1-yl)pyrimidine-2,4-diamine]	2000	
CN[C@@H]1CCN(c2cc(NCc3ccc(F)c(F)c3)nc(N)n2)C1 [Example 277, N^4-(3,4-Difluorobenzyl)-6-[(3R)-3-(methylamino)pyrrolidin-1-yl]pyrimidine-2,4-diamine]	1230	
CNc1cc(N2CCNCC2)nc(N)n1 [Example 208, N^4-Methyl-6-piperazin-1-ylpyrimidine-2,4-diamine]	45.1	
CNc1cc(N2CCC(N)CC2)nc(N)n1 [Example 284, 6-(4-Aminopiperidin-1-yl)-N^4-methylpyrimidine-2,4-diamine]	1720	
Nc1nc(NCC2CC2)cc(N2CCC(N)CC2)n1 [Example 283, 6-(4-Aminopiperidin-1-yl)-N^4-(cyclopropylmethyl)pyrimidine-2,4-diamine]	1700	
CC(C)(C)CNc1cc(N2C[C@H]3CCCN[C@H]3C2)nc(N)n1 [Example 318, N^4-(2,2-Dimethylpropyl)-6-[(4aR,7aR)-octahydro-6H-pyrrolo[3,4-b]pyridin-6-yl]pyrimidine-2,4diamine]		Method 1, activity at top dose (10 μM): No activity at top
Nc1nc(NCC2CC2)cc(N2CC[C@@H]3NCC[C@@H]3C2)n1 (racemic) [Example 188, N^4-(Cyclopropylmethyl)-6-[(3aR*,7aS*)-octahydro-5H-pyrrolo[3,2-c]pyridin-5-yl]pyrimidine-2,4-diamine]	25.5	
C[C@@H]1CN(c2cc(NCc3cccc(F)c3)nc(N)n2)CCN1 [Example 267, N^4-(3-Fluorobenzyl)-6-[(3R)-3-methylpiperazin-1-yl]pyrimidine-2,4-diamine]	715	
CC(C)(C)CNc1cc(N2CCNCC2)nc(N)n1 [Example 156, N^4-(2,2-Dimethylpropyl)-6-piperazin-1-ylpyrimidine-2,4-diamine]	2.44	
CNC1CN(c2cc(NCc3c(F)cccc3F)nc(N)n2)C1 [Example 317, N^4-(2,6-Difluorobenzyl)-6-[3-(methylamino)azetidin-1-yl]pyrimidine-2,4-diamine]		Method 1, activity at top dose (10 μM): No activity at top
CC(C)(C)CNc1cc(N2CCN(C3CCCCC3)CC2)ncn1 [Example 260, 6-(4-Cyclohexylpiperazin-1-yl)-N-(2,2-dimethylpropyl)pyrimidin-4-amine]		inhibition at 10 µM (1.5 h): 100%
CC(C)Nc1cc(N2C[C@H]3CN(C)C[C@H]3C2)nc(N)n1 [Example 241, N^4-Isopropyl-6-[(3aR*,6aS*)-5-methylhexahydropyrrolo[3,4-c]pyrrol-2(1H)-yl]pyrimidine-2,4-diamine]		Method 1, % at 1 μM (at 1 μM): 45% at 1 μM
CNC1CCCN(c2cc(NCC(C)C)nc(N)n2)C1 (stereo not shown) [Example 278, N^4-Isobutyl-6-[3-(methylamino)piperidin-1-yl]pyrimidine-2,4-diamine]	1260	

Continued, in another order:

Ki [nM]	SMILES	other results
17.8	CNC1CN(c2cc(NCc3cccc(F)c3F)nc(N)n2)C1 [Example 131, N^4-(2,3-Difluorobenzyl)-6-[3-(methylamino)azetidin-1-yl]pyrimidine-2,4-diamine]	
2.59	CCCC(C)Nc1cc(N2CC(NC)C2)nc(N)n1 (stereo not shown) [Example 158, 6-[3-(Methylamino)azetidin-1-yl]-N^4-(1-methylbutyl)pyrimidine-2,4-diamine]	
17.3	CCCCNc1cc(N2CC[C@@H](NC)C2)ncn1 [Example 147, N-Butyl-6-[(3R)-3-(methylamino)pyrrolidin-1-yl]pyrimidin-4-amine]	
80.7	Nc1nc(NCC2CCCC2)cc(N2CC[C@@H](N)C2)n1 [Example 218, 6-[(3R)-3-Aminopyrrolidin-1-yl]-N^4-(cyclopentylmethyl)pyrimidine-2,4-diamine]	
10.1	CNC1CN(c2cc(N3CCC(C)CC3)nc(N)n2)C1 [Example 173, 4-[3-(Methylamino)azetidin-1-yl]-6-(4-methylpiperidin-1-yl)pyrimidin-2-amine]	
3.04	CC(C)(C)CNc1cc(N2CC(N3CCCC3)C2)nc(N)n1 [Example 142, N^4-(2,2-Dimethylpropyl)-6-(3-pyrrolidin-1-ylazetidin-1-yl)pyrimidine-2,4-diamine]	
0.791	CCCCNc1cc(N2CC(NC)C2)nc(N)n1 [Example 132, N^4-Butyl-6-[3-(methylamino)azetidin-1-yl]pyrimidine-2,4-diamine]	
3.79	CCNc1cc(N2CC(NC)C2)nc(N)n1 [Example 70, N^4-Ethyl-6-[3-(methylamino)azetidin-1-yl]pyrimidine-2,4-diamine]	
9.69	CNC1CN(c2cc(NCc3cc(F)ccc3F)nc(N)n2)C1 [Example 130, N^4-(2,5-Difluorobenzyl)-6-[3-(methylamino)azetidin-1-yl]pyrimidine-2,4-diamine]	
4.89	CN[C@@H]1CCN(c2cc(NC(C)(C)C)nc(N)n2)C1 [Example 148, N^4-(tert-Butyl)-6-[(3R)-3-(methylamino)pyrrolidin-1-yl]pyrimidine-2,4-diamine]	
3.78	CNC1CN(c2cc(N[C@@H](C)C(C)C)nc(N)n2)C1 [Example 129, N^4-[(1S)-1,2-Dimethylpropyl]-6-[3-(methylamino)azetidin-1-yl]pyrimidine-2,4-diamine]	
20	CN[C@@H]1CCN(c2cc(NCC(C)(C)C)ncn2)C1 [Example 183, N-(2,2-Dimethylpropyl)-6-[(3R)-3-(methylamino)pyrrolidin-1-yl]pyrimidin-4-amine]	
12.4	CC[C@H](C)Nc1cc(N2CC[C@@H](NC)C2)nc(N)n1 [Example 151, 6-[(3R)-3-(Methylamino)pyrrolidin-1-yl]-N^4-[(1S)-1-methylpropyl]pyrimidine-2,4-diamine]	
113	CC(C)NC1CN(c2cc(NCC(C)(C)C)ncn2)C1 [Example 226, N-(2,2-Dimethylpropyl)-6-[3-(isopropylamino)azetidin-1-yl]pyrimidin-4-amine]	
32.6	CCC(C)CNc1cc(N2CC[C@@H](N)C2)nc(N)n1 (stereo partly drawn) [Example 195, 6-[(3R)-3-Aminopyrrolidin-1-yl]-N^4-(2-methylbutyl)pyrimidine-2,4-diamine]	
13.7	CC[C@@H](C)Nc1cc(N2CC[C@@H](NC)C2)ncn1 [Example 146, 6-[(3R)-3-(Methylamino)pyrrolidin-1-yl]-N-[(1R)-1-methylpropyl]pyrimidin-4-amine]	
12.1	CCCNc1cc(N2CC(C)(NC)C2)nc(N)n1 [Example 140, 6-[3-Methyl-3-(methylamino)azetidin-1-yl]-N^4-propylpyrimidine-2,4-diamine]	
20.5	CCNc1cc(N2CCCN(C)CC2)nc(N)n1 [Example 185, N^4-Ethyl-6-(4-methyl-1,4-diazepan-1-yl)pyrimidine-2,4-diamine]	
